# Results as given in patent US11072596B2, “Poly(ADP-ribose) polymerase inhibitor, preparation method and use” (SELECTION BIOSCIENCE LLC, priority 2017, dated 2021).
# pIC50: −log10 of the molar value.
# System: not listed separately
# Assay: Pharmacokinetic study in rats
# Settings: SD rats, PO 10 mg/kg
# Description: SD rats were used as test animals, and the drug concentrations in plasma at different times after intravenous and intragastric administration of the compounds of examples were determined by LC/MS/MS method(s) to study the pharmacokinetics of the compound in the present disclosure in rats
# Healthy adult male SD (Sprague-Dawley) rats, 3 animals per test compound, 6-9 weeks old, weighing 250±50 g, were purchased from Shanghai SLAC Laboratory Animal Co., Ltd.
# The appropriate amount of sample was weighed out, 0.5% Methocel/2% tween 80 was added to the final volume, and 2 mg/mL was prepared for intragastric administration.
# Each 3 male SD rats of each test compound were taken by intragastric administration at a dosage of 10 mg/kg after fasting overnight.
# Blood samples of each animal were collected at different time points 0.083-24 h from jugular vein puncture after administration, K2-EDTA anticoagulation, centrifugation, and blood plasma were collected, frozen at −70° C. until LC/MS/MS analysis.
Compound,F [%],"exposure amount (AUC) compared with Niraparib, in words"
"[2H]C1(c2ccc(-n3cc4cccc(C(N)=O)c4n3)cc2)CCCNC1 (single isomer, unassigned) [Example 3, (R or S)-2-(4-(piperidin-3-D-3-yl)phenyl)-2H-indazole-7-carboxamide]",62.3,significantly higher

# Same assay, conditions: SD rats, table head: Dose PO (10 mg/kg)
Compound,CL [mL/min/kg],Vdss [L/kg]
"[2H]C1(c2ccc(-n3cc4cccc(C(N)=O)c4n3)cc2)CCCNC1 (single isomer, unassigned) [Example 3, (R or S)-2-(4-(piperidin-3-D-3-yl)phenyl)-2H-indazole-7-carboxamide]",24.9,6.04

# Same assay, conditions: male, Sprague-Dawley, rat, in vivo, po, 10 mg/kg
Compound,F [%],MRT [h],T1/2 [h]
"NC(=O)c1cccc2cn(-c3ccc([C@]4(F)CCCNC4)cc3)nc12 (single isomer, unassigned) [Example 24, (R or S)-2-(4-(3-fluoropiperidin-3-yl)phenyl)-2H-indazole-7-carboxamide]",61.3,4.63,2.64

# Same assay, conditions: male, Sprague-Dawley, rat, plasma, po, 10 mg/kg, AUC, SD rats, PO 10 mg/kg
row,Compound,AUC [ng·h/mL]
1,"[2H]C1(c2ccc(-n3cc4cccc(C(N)=O)c4n3)cc2)CCCNC1 (single isomer, unassigned) [Example 3, (R or S)-2-(4-(piperidin-3-D-3-yl)phenyl)-2H-indazole-7-carboxamide]",5160

# Same assay, conditions: male, Sprague-Dawley, rat, plasma, po, 10 mg/kg, Cmax, SD rats, PO 10 mg/kg
row,Compound,Cmax [ng/mL]
1,"[2H]C1(c2ccc(-n3cc4cccc(C(N)=O)c4n3)cc2)CCCNC1 (single isomer, unassigned) [Example 3, (R or S)-2-(4-(piperidin-3-D-3-yl)phenyl)-2H-indazole-7-carboxamide]",549

# Same assay, conditions: male, Sprague-Dawley, rat, plasma, po, 10 mg/kg, MRT, SD rats, PO 10 mg/kg
row,Compound,MRT [h]
1,"[2H]C1(c2ccc(-n3cc4cccc(C(N)=O)c4n3)cc2)CCCNC1 (single isomer, unassigned) [Example 3, (R or S)-2-(4-(piperidin-3-D-3-yl)phenyl)-2H-indazole-7-carboxamide]",7.95

# Same assay, conditions: male, Sprague-Dawley, rat, plasma, po, 10 mg/kg, T1/2, SD rats, PO 10 mg/kg
row,Compound,half-life [min]
1,"[2H]C1(c2ccc(-n3cc4cccc(C(N)=O)c4n3)cc2)CCCNC1 (single isomer, unassigned) [Example 3, (R or S)-2-(4-(piperidin-3-D-3-yl)phenyl)-2H-indazole-7-carboxamide]",191

# Biological target: hERG potassium ion channel (Homo sapiens, UniProt Q12809)
# Assay: in vitro
# Settings: human
# Description: CHO-hERG cells were cultured in a 175 cm^2 flask, and when the cell density was increased to 60-80%, the medium was removed and washed with 7 mL of PBS (Phosphate Buffered Saline phosphate buffer), and then digested with 3 mL of Detachin.
# The single-cell high impedance sealing and the whole-cell mode formation process were all automatically completed by the Qpatch instrument. After obtaining the whole-cell recording mode, the cells were clamped at −80 mV (millivolt). Before giving a 5-second+40 mV depolarization stimulus, a 50 ms-50 mV pre-voltage was first given, repolarized to −50 mV for 5 seconds, and then returned to −80 mV. This voltage stimulation was applied every 15 seconds. After recording for 2 minutes, extracellular fluid was given for 5 minutes, and then the administration process was started. The compound concentration started from the lowest test concentration, and each test concentration was given for 2.5 minutes. […] At least 3 cells were tested at each concentration (n≥3).
# The 20 mM compound mother solution was diluted with extracellular fluid, and 5 μL of 20 mM compound mother solution was added to 2495 μL of extracellular solution, diluted 500-fold to 40 μM, and then sequentially performed 3-fold continuous dilution in an extracellular fluid containing 0.2% DMSO to obtain the final concentration to be tested.
# The experimental data were analyzed by XLFit software.
# Sequence of hERG potassium ion channel (Q12809 whole entry): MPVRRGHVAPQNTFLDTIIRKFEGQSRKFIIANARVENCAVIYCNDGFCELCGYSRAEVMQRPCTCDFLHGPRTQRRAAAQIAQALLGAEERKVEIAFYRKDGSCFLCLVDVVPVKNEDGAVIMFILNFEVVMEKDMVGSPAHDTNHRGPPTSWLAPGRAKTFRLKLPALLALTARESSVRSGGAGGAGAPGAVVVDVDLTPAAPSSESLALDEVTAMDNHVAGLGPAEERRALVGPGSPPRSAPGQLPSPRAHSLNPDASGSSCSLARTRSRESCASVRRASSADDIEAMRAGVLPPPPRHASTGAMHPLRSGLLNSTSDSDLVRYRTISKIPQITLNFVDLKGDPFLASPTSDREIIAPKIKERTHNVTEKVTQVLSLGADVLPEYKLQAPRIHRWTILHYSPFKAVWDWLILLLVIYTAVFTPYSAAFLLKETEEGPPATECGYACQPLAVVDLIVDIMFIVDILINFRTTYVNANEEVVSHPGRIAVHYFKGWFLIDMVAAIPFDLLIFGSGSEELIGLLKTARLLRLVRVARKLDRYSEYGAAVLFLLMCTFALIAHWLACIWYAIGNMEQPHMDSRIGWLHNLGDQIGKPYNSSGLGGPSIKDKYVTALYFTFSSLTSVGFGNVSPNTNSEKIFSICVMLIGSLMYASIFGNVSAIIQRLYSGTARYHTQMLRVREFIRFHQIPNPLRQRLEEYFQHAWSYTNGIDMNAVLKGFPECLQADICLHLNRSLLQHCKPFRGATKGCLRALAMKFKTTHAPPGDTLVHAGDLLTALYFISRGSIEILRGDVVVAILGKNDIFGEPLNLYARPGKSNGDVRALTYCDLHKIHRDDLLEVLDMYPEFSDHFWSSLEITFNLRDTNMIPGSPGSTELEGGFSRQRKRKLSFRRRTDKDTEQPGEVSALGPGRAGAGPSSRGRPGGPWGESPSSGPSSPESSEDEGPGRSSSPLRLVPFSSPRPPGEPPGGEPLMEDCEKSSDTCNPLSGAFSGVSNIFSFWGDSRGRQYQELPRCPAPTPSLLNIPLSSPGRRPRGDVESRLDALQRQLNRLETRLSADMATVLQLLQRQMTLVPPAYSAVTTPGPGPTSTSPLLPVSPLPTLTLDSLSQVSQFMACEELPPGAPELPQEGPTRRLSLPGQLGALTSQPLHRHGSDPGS
row,Compound,"inhibition at 2.5 min, 40 µM [%]"
1,COc1cc(N)c(Cl)cc1C(=O)NC1CCN(CCCOc2ccc(F)cc2)CC1OC (centres unmarked) [Cisapride],87.4

# Biological target: T1, PARP1 (Homo sapiens, UniProt P09874)
# T1 construct: purchased BPS 80580
# Assay: PARP1 Colorimetric Assay (PARP-1 kinase inhibitory activity)
# Type: biochemical
# Settings: PARP1 colorimetric assay kit, 1 hour at room temperature; read-out: PARP1 (in vitro enzymatic inhibitory activity, IC50)
# Description: PARP1 kinase activity was tested by the following method:
# PARP1 Colorimetric Assay Kit (BPS, Cat #80580)
# 1. PARP1 Colorimetric Assay
# 2) 50 μL of diluted coating solution was added to each well for overnight at 4° C.
# 4) 200 μL of blocking buffer was added to each well and incubated at room temperature for 90 minutes.
# 1) A reaction solution was prepared in a ratio of […] 2.5 μL 10×PARP buffer+2.5 μL 10×PARP Assay mixture+5 μL Activated DNA+15 μL deionized water per well, and 25 μL of the reaction solution was added to each well (see Table 1).
# 4) 100 μL of colorimetric HRP substrate was added to each well and reacted at room temperature for 20 minutes.
# 5) 100 μL of 2 M H2SO4 was added to each well and OD 450 nm was read on a microplate reader.
# T1 sequence (P09874 whole entry): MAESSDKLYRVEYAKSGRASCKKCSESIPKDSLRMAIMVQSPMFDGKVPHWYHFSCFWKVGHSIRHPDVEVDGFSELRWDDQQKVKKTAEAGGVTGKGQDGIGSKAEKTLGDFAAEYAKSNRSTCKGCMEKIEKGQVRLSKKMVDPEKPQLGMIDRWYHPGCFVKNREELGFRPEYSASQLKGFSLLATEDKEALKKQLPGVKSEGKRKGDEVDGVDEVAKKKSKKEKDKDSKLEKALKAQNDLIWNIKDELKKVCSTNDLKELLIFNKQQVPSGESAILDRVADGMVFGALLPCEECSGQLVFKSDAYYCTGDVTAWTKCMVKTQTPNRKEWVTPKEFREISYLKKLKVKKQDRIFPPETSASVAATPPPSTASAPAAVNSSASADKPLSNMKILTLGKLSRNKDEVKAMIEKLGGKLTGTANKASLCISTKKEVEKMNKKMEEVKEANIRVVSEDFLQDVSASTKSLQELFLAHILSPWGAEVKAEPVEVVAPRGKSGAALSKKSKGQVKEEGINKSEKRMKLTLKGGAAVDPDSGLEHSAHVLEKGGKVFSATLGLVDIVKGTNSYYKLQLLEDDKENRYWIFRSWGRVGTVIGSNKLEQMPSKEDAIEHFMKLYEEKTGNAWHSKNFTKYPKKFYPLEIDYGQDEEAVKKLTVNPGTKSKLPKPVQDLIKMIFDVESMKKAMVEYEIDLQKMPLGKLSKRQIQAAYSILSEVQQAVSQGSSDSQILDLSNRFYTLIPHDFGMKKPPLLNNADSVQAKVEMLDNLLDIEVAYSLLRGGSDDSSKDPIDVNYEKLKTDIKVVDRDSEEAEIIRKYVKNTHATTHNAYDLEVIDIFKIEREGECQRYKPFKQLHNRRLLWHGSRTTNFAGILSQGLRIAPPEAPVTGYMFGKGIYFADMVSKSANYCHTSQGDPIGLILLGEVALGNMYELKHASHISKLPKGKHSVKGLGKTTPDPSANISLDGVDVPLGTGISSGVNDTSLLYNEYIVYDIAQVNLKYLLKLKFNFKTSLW
row,Compound,pIC50
1,[2H]C1(c2ccc(-n3cc4cccc(C(N)=O)c4n3)cc2F)CCCNC1 (centres unmarked) [Example 7],> 7.00
2,[2H][C@]1(c2ccc(-n3cc4cc(F)cc(C(N)=O)c4n3)cc2)CCCNC1 [Example 6],> 7.00
3,NC(=O)c1cccc2cn(-c3ccc(C4(F)CCCNC4)c(F)c3)nc12 (centres unmarked) [Example 28],> 7.00
4,NC(=O)c1c(F)ccc2cn(-c3ccc(C4(F)CCCNC4)cc3)nc12 (centres unmarked) [Example 37],6.30 to 7.00
5,[2H][C@]1(c2ccc(-n3nc4c(C(N)=O)cccc4c3F)cc2)CCCNC1 [Example 11],6.30 to 7.00
6,"NC(=O)c1cccc2cn(-c3ccc(C4(F)CCCNC4)cc3)nc12 (racemic) [Example 22, 2-(4-(3-Fluoropiperidin-3-yl)phenyl)-2H-indazole-7-carboxamide]",> 7.00
7,[2H]C1(c2ccc(-n3cc4cc(F)cc(C(N)=O)c4n3)cc2F)CCCNC1 (centres unmarked) [Example 16],> 7.00
8,NC(=O)c1cccc2c(F)n(-c3ccc(C4(F)CCCNC4)cc3)nc12 (centres unmarked) [Example 31],6.30 to 7.00
9,C[C@]1(c2ccc(-n3cc4cc(F)cc(C(N)=O)c4n3)cc2)CCCNC1 [Example 48],6.30 to 7.00
10,[2H][C@@]1(c2ccc(-n3cc4cccc(C(N)=O)c4n3)c(F)c2)CCCNC1 [Example 15],6.30 to 7.00
11,C[C@]1(c2ccc(-n3cc4cccc(C(N)=O)c4n3)cc2F)CCCNC1 [Example 50],6.30 to 7.00
12,NC(=O)c1cccc2cn(-c3ccc([C@@]4(F)CCCNC4)cc3F)nc12 [Example 35],6.30 to 7.00
13,NC(=O)c1cc(F)cc2cn(-c3ccc(C4(F)CCCNC4)cc3)nc12 (centres unmarked) [Example 25],> 7.00
14,NC(=O)c1cccc2cn(-c3ccc([C@]4(F)CCCNC4)cc3F)nc12 [Example 36],6.30 to 7.00
15,[2H][C@@]1(c2ccc(-n3cc4cc(F)cc(C(N)=O)c4n3)cc2F)CCCNC1 [Example 17],> 7.00
16,NC(=O)c1ccc(F)c2cn(-c3ccc([C@@]4(F)CCCNC4)cc3)nc12 [Example 42],6.30 to 7.00
17,[2H][C@]1(c2ccc(-n3cc4cccc(C(N)=O)c4n3)c(F)c2)CCCNC1 [Example 14],6.30 to 7.00
18,[2H][C@@]1(c2ccc(-n3cc4cccc(C(N)=O)c4n3)cc2F)CCCNC1 [Example 9],> 7.00
19,[2H][C@]1(c2ccc(-n3cc4cccc(C(N)=O)c4n3)cc2F)CCCNC1 [Example 8],> 7.00
20,CC1(c2ccc(-n3nc4c(C(N)=O)cccc4c3F)cc2)CCCNC1 (centres unmarked) [Example 52],6.00 to 6.30
21,NC(=O)c1cccc2c(F)n(-c3ccc([C@@]4(F)CCCNC4)cc3)nc12 [Example 32],6.30 to 7.00
22,C[C@@]1(c2ccc(-n3cc4cc(F)cc(C(N)=O)c4n3)cc2)CCCNC1 [Example 47],6.30 to 7.00
23,NC(=O)c1cccc2c(F)n(-c3ccc([C@]4(F)CCCNC4)cc3)nc12 [Example 30],> 7.00
24,"C[C@]1(c2ccc(-n3cc4cccc(C(N)=O)c4n3)cc2)CCCNC1 [Example 44, (R or S)-2-(4-(3-methylpiperidin-3-yl)phenyl)-2H-indazole-7-carboxamide]",6.30 to 7.00
25,C[C@]1(c2ccc(-n3cc4cccc(C(N)=O)c4n3)c(F)c2)CCCNC1 [Example 56],6.30 to 7.00
26,"CC1(c2ccc(-n3cc4cccc(C(N)=O)c4n3)cc2)CCCNC1 (racemic) [Example 43, 2-(4-(3-Methylpiperidin-3-yl)phenyl)-2H-indazole-7-carboxamide]",6.30 to 7.00
27,"C[C@]1(c2ccc(-n3cc4cccc(C(N)=O)c4n3)cc2)CCCNC1 (single isomer, unassigned) [Example 45, (R or S)-2-(4-(3-methylpiperidin-3-yl)phenyl)-2H-indazole-7-carboxamide]",6.30 to 7.00

row,Compound,pIC50
1,NC(=O)c1ccc(F)c2cn(-c3ccc([C@]4(F)CCCNC4)cc3)nc12 [Example 41],6.30 to 7.00
2,[2H]C1(c2ccc(-n3nc4c(C(N)=O)cccc4c3F)cc2)CCCNC1 (centres unmarked) [Example 10],6.30 to 7.00
3,NC(=O)c1cccc2cn(-c3ccc([C@@]4(F)CCCNC4)c(F)c3)nc12 [Example 29],> 7.00
4,C[C@@]1(c2ccc(-n3nc4c(C(N)=O)cccc4c3F)cc2)CCCNC1 [Example 54],6.00 to 6.30
5,[2H][C@]1(c2ccc(-n3cc4cc(F)cc(C(N)=O)c4n3)c(F)c2)CCCNC1 [Example 21],> 7.00
6,[2H][C@]1(c2ccc(-n3cc4cc(F)cc(C(N)=O)c4n3)cc2F)CCCNC1 [Example 18],> 7.00
7,C[C@@]1(c2ccc(-n3cc4cccc(C(N)=O)c4n3)c(F)c2)CCCNC1 [Example 57],6.30 to 7.00
8,[2H]C1(c2ccc(-n3cc4cc(F)cc(C(N)=O)c4n3)cc2)CCCNC1 (centres unmarked) [Example 4],> 7.00
9,[2H][C@@]1(c2ccc(-n3cc4cc(F)cc(C(N)=O)c4n3)c(F)c2)CCCNC1 [Example 20],> 7.00
10,[2H][C@@]1(c2ccc(-n3nc4c(C(N)=O)cccc4c3F)cc2)CCCNC1 [Example 12],6.30 to 7.00
11,[2H]C1(c2ccc(-n3cc4cc(F)cc(C(N)=O)c4n3)c(F)c2)CCCNC1 (centres unmarked) [Example 19],> 7.00
12,CC1(c2ccc(-n3cc4cccc(C(N)=O)c4n3)c(F)c2)CCCNC1 (centres unmarked) [Example 55],6.30 to 7.00
13,CC1(c2ccc(-n3cc4cc(F)cc(C(N)=O)c4n3)cc2)CCCNC1 (centres unmarked) [Example 46],6.30 to 7.00
14,[2H][C@@]1(c2ccc(-n3cc4cc(F)cc(C(N)=O)c4n3)cc2)CCCNC1 [Example 5],> 7.00
15,NC(=O)c1cccc2cn(-c3ccc(C4(F)CCCNC4)cc3F)nc12 (centres unmarked) [Example 34],6.30 to 7.00
16,[2H]C1(c2ccc(-n3cc4cccc(C(N)=O)c4n3)c(F)c2)CCCNC1 (centres unmarked) [Example 13],6.30 to 7.00
17,"NC(=O)c1cccc2cn(-c3ccc([C@]4(F)CCCNC4)cc3)nc12 (single isomer, unassigned) [Example 24, (R or S)-2-(4-(3-fluoropiperidin-3-yl)phenyl)-2H-indazole-7-carboxamide]",> 7.00
18,NC(=O)c1c(F)ccc2cn(-c3ccc([C@@]4(F)CCCNC4)cc3)nc12 [Example 39],6.30 to 7.00
19,NC(=O)c1cccc2c(F)n(-c3ccc([C@]4(F)CCCNC4)cc3)nc12 [Example 33],6.30 to 7.00
20,NC(=O)c1c(F)ccc2cn(-c3ccc([C@]4(F)CCCNC4)cc3)nc12 [Example 38],6.30 to 7.00
21,NC(=O)c1cc(F)cc2cn(-c3ccc([C@@]4(F)CCCNC4)cc3)nc12 [Example 27],> 7.00
22,NC(=O)c1ccc(F)c2cn(-c3ccc(C4(F)CCCNC4)cc3)nc12 (centres unmarked) [Example 40],6.30 to 7.00
23,NC(=O)c1cc(F)cc2cn(-c3ccc([C@]4(F)CCCNC4)cc3)nc12 [Example 26],> 7.00
24,C[C@@]1(c2ccc(-n3cc4cccc(C(N)=O)c4n3)cc2F)CCCNC1 [Example 51],6.30 to 7.00
25,CC1(c2ccc(-n3cc4cccc(C(N)=O)c4n3)cc2F)CCCNC1 (centres unmarked) [Example 49],6.30 to 7.00
26,C[C@]1(c2ccc(-n3nc4c(C(N)=O)cccc4c3F)cc2)CCCNC1 [Example 53],6.00 to 6.30
